In patent publication US11407771B2 (priority 2018, dated 2022):

Each molecule was assayed against T1, MAPK13 (Homo sapiens (Human), UniProt O15264) (assay: not given). Details: read-out: MAPK13 inhibition.
T1 sequence (O15264 whole entry): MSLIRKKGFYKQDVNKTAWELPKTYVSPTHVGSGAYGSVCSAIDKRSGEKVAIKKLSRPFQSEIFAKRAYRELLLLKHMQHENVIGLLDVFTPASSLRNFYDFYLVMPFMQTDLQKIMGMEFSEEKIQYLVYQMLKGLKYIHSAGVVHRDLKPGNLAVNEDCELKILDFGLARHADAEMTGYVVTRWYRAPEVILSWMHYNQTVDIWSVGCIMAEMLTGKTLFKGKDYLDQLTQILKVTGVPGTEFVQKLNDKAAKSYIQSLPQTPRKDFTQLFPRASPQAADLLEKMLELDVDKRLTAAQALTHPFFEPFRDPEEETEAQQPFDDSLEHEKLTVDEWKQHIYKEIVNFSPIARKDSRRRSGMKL

Q: `CC(=O)Nc1cc(Oc2ccc(NC(=O)Nc3cc(C4CC4)ccc3F)c(F)c2)ccn1` [Compound 397, N-(4-{4-[3-(5-Cyclopropyl-2-fluoro-pheny)-ureido]-3-fluoro-phenoxy}-pyridin-2-yl)-actamde] was tested. Which IC50 did it give?
A: < 250 nM

Q: How did the IC50 turn out when `CC(=O)Nc1cc(CCc2cnc(NC(=O)Nc3cc(C4CC4)ccc3F)s2)ccn1` [Compound 398, N-[4-(2-{2-[3-(5-Cyclopropyl-2-fluoro-phenyl)-ureido]-thiazol-5-yl}-ethyl)-pyridin-2-yl]-acetamide] was run?
A: < 250 nM

Q: Which IC50 does the source give for `CCOC(=O)Nc1cc(CCc2cnc(NC(=O)Nc3cc(C(C)(C)C)n[nH]3)s2)ccn1` [Compound 354, [4-(2-{2-[3-(5-tert-Butyl-2H-pyrazol-3-yl)-ureido]-thiazol-5-yl}-ethyl)-pyridin-2-yl]-carbamic acid ethyl ester] here?
A: < 250 nM

What follows are molecules tested on MUC5AC mucin formation in IL-13-stimulated hTEC (assay: not given). Details: not given.

Q: Which MUC5AC production does the source give for `CC(=O)Nc1cc(Oc2ccc(NC(=O)Nc3cc(C4CC4)ccc3F)c(F)c2)ccn1` [Compound 397, N-(4-{4-[3-(5-Cyclopropyl-2-fluoro-pheny)-ureido]-3-fluoro-phenoxy}-pyridin-2-yl)-actamde] here?
A: marked attenuation

Q: For `O=c1ncn2nc(Sc3ccc(F)cc3F)ccc2c1-c1c(Cl)cccc1Cl` [Compound 401, VX-745, reference compound], which MUC5AC production is on record?
A: no significant inhibition

Q: Which MUC5AC production does the source give for `CC(=O)Nc1cc(CCc2cnc(NC(=O)Nc3cc(C4CC4)ccc3F)s2)ccn1` [Compound 398, N-[4-(2-{2-[3-(5-Cyclopropyl-2-fluoro-phenyl)-ureido]-thiazol-5-yl}-ethyl)-pyridin-2-yl]-acetamide] here?
A: marked attenuation

Q: How did the MUC5AC production turn out when `CCOC(=O)Nc1cc(CCc2cnc(NC(=O)Nc3cc(C(C)(C)C)n[nH]3)s2)ccn1` [Compound 354, [4-(2-{2-[3-(5-tert-Butyl-2H-pyrazol-3-yl)-ureido]-thiazol-5-yl}-ethyl)-pyridin-2-yl]-carbamic acid ethyl ester] was run?
A: marked attenuation

Each molecule was assayed against T1, MAPK13 (assay: biochemical). Details: not given.

Q: With `CC(C)(C)c1cc(NC(=O)Nc2ncc(CCc3ccnc(N)c3)s2)[nH]n1` [Compound 367, 1-{5-[2-(2-Ainino-pyridin-4-yl)-ethyl]-thiazol-2-yl}-3-(5-tert-butyl-2H-pyrazol-3-yl)-urea] as the molecule, how does the IC50 read?
A: 250 to 1000 nM

Q: How did the IC50 turn out when `Cc1ccc(-n2nc(C(C)(C)CO)cc2NC(=O)Nc2ccc(Oc3ccncc3)cc2)cc1` [Compound 280, 1-[5-(2-Hydroxy-1,1-dimethyl-ethyl)-2-p-tolyl-2H-pyrazol-3-yl]-3-[4-(pyridin-4-yloxy)-phenyl]-urea] was run?
A: 250 to 1000 nM

Q: How did the IC50 turn out when `COCC(=O)Nc1cc(Oc2ccc(NC(=O)Nc3cc(C4(C)COC4)nn3-c3ccc(C)cc3)c(F)c2)ccn1` [Compound 267, N-[4-[3-fluoro-4-[[5-(3-methyloxetan-3-yl)-2-(p-tolyl)pyrazol-3-yl]carbamoylamino]phenoxy]-2-pyridyl]-2-methoxy-acetamide] was run?
A: < 250 nM

Q: Which IC50 does the source give for `CC(C)(C)c1cc(NC(=O)Nc2ncc(CCc3ccncc3)s2)no1` [Compound 387, 1-(5-tert-Butyl-isoxazol-3-yl)-3-[5-(2-pyridin-4-yl-ethyl)-thiazol-2-yl]-urea] here?
A: 250 to 1000 nM

Q: With `CC(=O)Nc1cc(COc2ccc(NC(=O)Nc3cc(C(C)(C)C)ccc3Cl)c(F)c2)ccn1` [Compound 414, N-(4-{4-[3-(5-tert-Butyl-2-chloro-phenyl)-ureido]-3-fluoro-phenoxymethyl}-pyridin-2-yl)-acetamide] as the molecule, how does the IC50 read?
A: 250 to 1000 nM

Q: With `CC(=O)Nc1cc(Oc2ccc(NC(=O)Nc3cc(C(C)(C)C)nn3CC3CC3)c(F)c2)ccn1` [Compound 393, N-(4-{4-[3-(5-tert-Butyl-2-cyclopropylmethyl-2H-pyrazol-3-yl)-ureido]-3-fluoro-phenoxy}-pyridin-2-yl)-acetamide] as the molecule, how does the IC50 read?
A: < 250 nM

Q: With `Cc1ccc(-n2nc(C(C)(C)CO)cc2NC(=O)Nc2ccc(Oc3ccncc3)cc2F)cc1` [Compound 279, 1-[2-Fluoro-4-(pyridin-4-yloxy)-phenyl]-3-[5-(2-hydroxy-1,1-dimethyl-ethyl)-2-p-tolyl-2H-pyrazol-3-yl]-urea] as the molecule, how does the IC50 read?
A: 250 to 1000 nM

Q: For `Cc1ccc(-n2nc(C3(C)COC3)cc2NC(=O)Nc2ncc(CCc3ccncc3)s2)cc1` [Compound 271], which IC50 is on record?
A: 250 to 1000 nM

Q: For `Cc1ccc(-n2nc(C(C)(C)C)cc2NC(=O)Nc2ncc(CCc3ccnc(NC(=O)OCc4ccccc4)c3)s2)cc1` [Compound 277, [4-(2-{2-[3-(5-tert-Butyl-2-p-tolyl-2H-pyrazol-3-yl)-ureido]-thiazol-5-yl}-ethyl)-pyridin-2-yl]-carbamic acid benzyl ester], which IC50 is on record?
A: 250 to 1000 nM

Q: Which IC50 does the source give for `COC(=O)Nc1cc(CCc2ccc(NC(=O)Nc3cc(C(C)(C)C)nn3CC3CC3)c(F)c2)ccn1` [Compound 316, [4-(2-{4-[3-(5-tet-Butyl-2-cyclopropylmethyl-2H-pyrazol-3-yl)-ureido]-3-fluoro-phenyl}-ethyl)-pyridin-2-yl]-carbamic acid methyl ester] here?
A: 250 to 1000 nM

Q: For `Cn1nc(C(C)(C)C)cc1NC(=O)Nc1ccc(CCc2ccnc(NC(=O)C3CC3)c2)cc1F` [Compound 373, Cyclopropanecarboxylic acid [4-(2-{4-[3-(5-tert-butyl-2-methyl-2H-pyrazol-3-yl)-ureido]-3-fluoro-phenyl}-ethyl)-pyridin-2-yl]-amide], which IC50 is on record?
A: 250 to 1000 nM

Q: With `CC(C)(C)c1cc(NC(=O)Nc2ncc(CCc3ccnc(N)c3)s2)no1` [Compound 365, 1-{5-[2-(2-Amine-pyridin-4-yl)-ethyl]-thiazol-2-yl}-3-(5-tert-butyl-isoxazol-3-yl)-urea] as the molecule, how does the IC50 read?
A: 250 to 1000 nM
